Read-outs that look alike come from different tables or passages of the source.

The target in experiment [1] is T1, MOF (male absent on the first, MYST1, HAT8) (Homo sapiens, UniProt Q9H7Z6, I317A).
T1 sequence (Q9H7Z6 174-447 I317A limits assumed): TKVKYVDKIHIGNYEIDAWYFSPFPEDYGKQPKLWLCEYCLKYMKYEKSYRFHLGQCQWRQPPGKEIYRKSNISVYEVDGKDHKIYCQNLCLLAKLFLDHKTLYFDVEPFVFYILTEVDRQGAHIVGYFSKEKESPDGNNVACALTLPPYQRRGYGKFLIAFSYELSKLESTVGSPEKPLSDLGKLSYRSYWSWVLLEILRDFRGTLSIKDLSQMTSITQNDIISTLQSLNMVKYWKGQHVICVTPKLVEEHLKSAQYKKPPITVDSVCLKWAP
The experiment is described as follows: CPM fluorogenic enzyme kinetics, Km. It is filed as biochemical.

For experiment [2], the target named is MOF (male absent on the first, MYST1, HAT8) (Homo sapiens, UniProt Q9H7Z6).
Experiment [3] has as its target T1, MOF (male absent on the first, MYST1, HAT8).

Chain of MOF (male absent on the first, MYST1, HAT8) (Homo sapiens, UniProt Q9H7Z6) (Q9H7Z6 2-458): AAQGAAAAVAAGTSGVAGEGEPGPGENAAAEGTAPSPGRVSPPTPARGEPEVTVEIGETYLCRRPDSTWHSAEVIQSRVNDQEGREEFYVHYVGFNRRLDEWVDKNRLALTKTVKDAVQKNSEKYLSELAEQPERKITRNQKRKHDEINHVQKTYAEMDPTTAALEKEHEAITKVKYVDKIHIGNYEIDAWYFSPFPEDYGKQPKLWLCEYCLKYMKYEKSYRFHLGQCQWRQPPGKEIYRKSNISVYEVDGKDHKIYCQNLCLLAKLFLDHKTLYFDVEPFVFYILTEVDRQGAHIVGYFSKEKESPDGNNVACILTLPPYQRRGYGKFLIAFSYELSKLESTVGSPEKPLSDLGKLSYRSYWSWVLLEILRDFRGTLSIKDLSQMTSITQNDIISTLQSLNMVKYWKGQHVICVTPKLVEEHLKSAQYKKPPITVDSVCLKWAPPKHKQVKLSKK

Turning to `CC(C)(COP(=O)(O)OP(=O)(O)OC[C@H]1O[C@@H](n2cnc3c(N)ncnc32)[C@H](O)[C@@H]1OP(=O)(O)O)[C@@H](O)C(=O)NCCC(=O)NCCSC(=O)CCN=[N+]=[N-]` [3-azidopropanoyl CoA], the Km in experiment [1] is 2.7 ± 0.2 µM. `CC(=O)SCCNC(=O)CCNC(=O)[C@H](O)C(C)(C)COP(=O)(O)OP(=O)(O)OC[C@H]1O[C@@H](n2cnc3c(N)ncnc32)[C@H](O)[C@@H]1OP(=O)(O)O` [acetyl-CoA]: the values for the Michaelis-Menten constant (Km) in experiment [2] and in experiment [3] were 1.3 ± 0.1 µM and 3.5 ± 0.2 µM, respectively.

The values above are taken from publication PMC4804155 (Chembiochem : a European journal of chemical biology, 2015).
